Assay results taken from article PMC9427784, “Structural bases for aspartate recognition and polymerization efficiency of cyanobacterial cyanophycin synthetase” (Nature Communications, 2022).
Blank lines part the entries; values can stand above or below the molecule they belong to.

How the values were obtained:
TeCphA1 [1] = biological target: T1, TeCphA1 (Trichodesmium erythraeum, UniProt Q113V7); assay: phosphate release, molybdenum blue colorimetry; Michaelis-Menten fit; assay type: biochemical; details: one substrate varied; L-aspartate 5 mM, L-arginine 0.5 mM, (β-Asp-Arg)4 2 mM; 20 mM MgCl2, pH 8.2, 30°C; two ATP sites (G and M domains)
T1 construct: gene Tery_1965; full-length, C-terminal His6 tag (pET-22b(+), NdeI/XhoI), E. coli BL21(DE3); D2 homotetramer; N (1-161), G (162-487), M (488-876) domains

TeCphA1 [2] = biological target: T1, TeCphA1; assay: cryo-EM structure, […] Å (C1); assay type: binding; details: complex with ATPγS, (β-Asp-Arg)4, Mg2+; 100 mM L-aspartate, pH 8.2; G domain site, seen in chain D
[3] = biological target: cyanophycin synthetase (CphA1) from Trichodesmium erythraeum IMS101 (Trichodesmium erythraeum IMS101); assay: cryo-EM structure; single-particle cryo-EM of TeCphA1 in the apo, ATPγS-bound and substrate-bound states; 2-12 μM TeCphA1, Tris-HCl pH 8.0-8.2
TeCphA1 [4] = biological target: T1, TeCphA1; assay: cryo-EM structure, […] Å; assay type: binding; details: 4 mM ATPγS, 20 mM MgCl2, pH 8.2; G and M domain sites; also in substrate-bound 7WAE (C1) and 7WAF (C2)
purified protein = substrate: N[C@@H](CC(=O)O)C(=O)O; assay: purified protein; details: one substrate varied, other substrates at ATP 4 mM, L-arginine 0.5 mM, (β-Asp-Arg)4 2 mM, 20 mM MgCl2, 20 mM KCl, pH 8.2, 30°C, positively cooperative, Hill fit

Molecule: Nc1ncnc2c1ncn2[C@@H]1O[C@H](COP(=O)(O)OP(=O)(O)OP(=O)(O)O)[C@@H](O)[C@H]1O [ATP]
apparent Km (TeCphA1 [1]): we have determined the apparent Km value for ATP

Molecule: N[C@@H](CC(=O)O)C(=O)O [L-aspartate]
cryo-EM structure, 2.64 Å (C1) (TeCphA1 [2]): the substrate aspartate was observed only in one protomer (chain D)

stoichiometry N [3]: 4
Molecule: cyanophycin synthetase (CphA1) from Trichodesmium erythraeum IMS101 (enzyme)

Molecule: Nc1ncnc2c1ncn2[C@@H]1O[C@H](COP(=O)(O)OP(=O)(O)OP(O)(O)=S)[C@@H](O)[C@H]1O [ATPγS]
cryo-EM structure, 2.96 Å (TeCphA1 [4]): 7WAD for TeCphA1 bound with ATPγS

B1: TeCphA1 (Trichodesmium erythraeum IMS101) (protein)
chain: MKILKLQTLRGPNYWSIHRHKLVVMRLDLEDLYEKYTSDIPGFYKGLTEVLPSLVEHLCSPGVKGGFLTRVEKGTLIGHVIEHVAIELQELAGMPVGFGRTRETSTTGVFQVVIEYENEQAGRYAARAAVRLCQSIVDTGTYPATELQQDLEDLKELKNQASLGPSTEAIVKEAEARGIPWTQLGARFMIQFGYGVNQKKIQATLSNQTGILGVELACDKEGTKRILKDAGVPVPRGTVARYFDELQDAIEYVGGYPIVIKPLDGNHGRGITIDVKNWQEAEEAYDLARKASKTKTVIVERYYTGKDHRVLVVNGKVVAVAERVPAHVVGNGKSTIAELIEETNRDPQRGDGHDNILTRITVDKSALDILGKQGYSIDSIPLKGKKCFLRATANLSTGGIAVDRTDEIHPENVWLLSRVAKIIGLDIAGIDVVTEDISQPLREVEGVIVEVNAAPGFRMHVAPSRGLARNVAGAVMDMLFPGSKNGRIPILSVTGTNGKTTTTRLLAHIIKQTGKVVGYTTTDGTYIGEYLAETGDNTGPQSAHLILSDPTVEVAVLETARGGILRSGLGFSSCEVGIVLNVTADHLGIGDIDTIEQLAKLKSVVAESVMPKGYAVLNAEDPLVAAMADRVKGQVAYFSMDPNNELLLRHTEAGGLAAIYENGYISILKGDWTLRIEKAVNVPITMAGKAPFMIANALAACLAVFTQGVKIEHIRKGLSTFVASVDQTPGRMNMFNMGSYHALVDYAHNPASYEALGGFVRNWPGKRIGVVGGPGDRRDEDFVSLGELAADIFDEIIIKEDDDTRGRPRGNAAELICQGVKQFLNGIKNSESKATYESILDETAAINTALDRAPIDGLVVILPESVNRAISLIEGRHVIQDIELLQDSQREPKDQEVLKSSI
K0.5 (purified protein): 18.0 ± 1.1 mM
